According to ChEMBL document CHEMBL4507259 (2021):

Columns and labels:
Hs 695T = test: Hs695T cell line Proliferation assay; format: functional, Homo sapiens; conditions: Compound concentration 10 uM; time 5 day
BJAB = test: BJAB cell line Proliferation assay; format: functional, Homo sapiens; conditions: Compound concentration 10 uM; time 3 day
NCI-H23 = test: H23 cell line Proliferation assay; format: functional, Homo sapiens; conditions: Compound concentration 10 uM; time 3 day
MDA-MB-157 = test: MDA_MB_157 cell line Proliferation assay; format: functional, Homo sapiens; conditions: Compound concentration 10 uM; time 5 day
HCC1187 = test: HCC1187 cell line Proliferation assay; format: functional, Homo sapiens; conditions: Compound concentration 10 uM; time 5 day
SK-MEL-2 = test: SKMEL2 cell line Proliferation assay; format: functional, Homo sapiens; conditions: Compound concentration 10 uM; time 5 day
[1] = biological target: Beta-2 adrenergic receptor (Homo sapiens) (UniProt P07550); test: beta 2 (h) CEREP ligand profiling; conditions: filed as agonist, Compound concentration 10.0 uM
Beta-2 adrenergic receptor (Homo sapiens), sequence (P07550 whole entry, looked up): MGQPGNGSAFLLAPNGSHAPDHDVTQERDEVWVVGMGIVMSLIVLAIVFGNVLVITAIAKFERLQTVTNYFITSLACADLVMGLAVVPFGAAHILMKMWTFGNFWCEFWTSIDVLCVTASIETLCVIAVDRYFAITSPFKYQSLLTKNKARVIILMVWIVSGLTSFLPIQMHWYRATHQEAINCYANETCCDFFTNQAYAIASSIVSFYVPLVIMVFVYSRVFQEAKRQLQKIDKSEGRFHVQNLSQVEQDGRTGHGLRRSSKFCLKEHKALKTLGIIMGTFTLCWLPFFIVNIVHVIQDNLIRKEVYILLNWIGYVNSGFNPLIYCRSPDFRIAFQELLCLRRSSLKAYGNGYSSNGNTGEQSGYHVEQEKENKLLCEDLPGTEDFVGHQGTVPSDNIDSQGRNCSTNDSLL

SK-MEL-24 = test: SKMEL24 cell line Proliferation assay; format: functional, Homo sapiens; conditions: Compound concentration 10 uM; time 5 day
[2] = biological target: Translocator protein (Rattus norvegicus) (UniProt P16257); test: BZD (peripheral) CEREP ligand profiling; conditions: filed as antagonist; Compound concentration 10.0 uM
Translocator protein (Rattus norvegicus), sequence (P16257 whole entry, looked up): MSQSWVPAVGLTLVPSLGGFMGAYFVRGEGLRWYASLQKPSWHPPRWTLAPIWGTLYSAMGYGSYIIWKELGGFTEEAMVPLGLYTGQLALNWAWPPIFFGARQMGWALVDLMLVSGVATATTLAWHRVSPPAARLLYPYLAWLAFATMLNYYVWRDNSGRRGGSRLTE

NCI-H209 = test: H209 cell line Proliferation assay; format: functional, Homo sapiens; conditions: Compound concentration 10 uM; time 4 day
NCI-H2444 = test: H2444 cell line Proliferation assay; format: functional, Homo sapiens; conditions: Compound concentration 10 uM; time 3 day
SET-2 = test: SET-2 cell line Proliferation assay; format: functional, Homo sapiens; conditions: Compound concentration 10 uM; time 3 day
SUD4 = test: SuDHL4 cell line Proliferation assay; format: functional, Homo sapiens; conditions: Compound concentration 10 uM; time 3 day
NCI-H510A = test: H510A cell line Proliferation assay; format: functional, Homo sapiens; conditions: Compound concentration 10 uM; time 4 day
Toledo = test: Toledo cell line Proliferation assay; format: functional, Homo sapiens; conditions: Compound concentration 10 uM; time 3 day
K562 = test: K562 cell line Proliferation assay; format: functional, Homo sapiens; conditions: Compound concentration 10 uM; time 3 day
MeWo = test: MeWo cell line Proliferation assay; format: functional, Homo sapiens; conditions: Compound concentration 10 uM; time 5 day
[3] = biological target: Sodium-dependent serotonin transporter (Homo sapiens, UniProt P31645); test: GPCRScan assay: inhibition of SERT; set-up: radioligand conc. used [nm] 1.5 – 2.0, parental cells stable HEK
Sodium-dependent serotonin transporter, sequence (P31645 whole entry): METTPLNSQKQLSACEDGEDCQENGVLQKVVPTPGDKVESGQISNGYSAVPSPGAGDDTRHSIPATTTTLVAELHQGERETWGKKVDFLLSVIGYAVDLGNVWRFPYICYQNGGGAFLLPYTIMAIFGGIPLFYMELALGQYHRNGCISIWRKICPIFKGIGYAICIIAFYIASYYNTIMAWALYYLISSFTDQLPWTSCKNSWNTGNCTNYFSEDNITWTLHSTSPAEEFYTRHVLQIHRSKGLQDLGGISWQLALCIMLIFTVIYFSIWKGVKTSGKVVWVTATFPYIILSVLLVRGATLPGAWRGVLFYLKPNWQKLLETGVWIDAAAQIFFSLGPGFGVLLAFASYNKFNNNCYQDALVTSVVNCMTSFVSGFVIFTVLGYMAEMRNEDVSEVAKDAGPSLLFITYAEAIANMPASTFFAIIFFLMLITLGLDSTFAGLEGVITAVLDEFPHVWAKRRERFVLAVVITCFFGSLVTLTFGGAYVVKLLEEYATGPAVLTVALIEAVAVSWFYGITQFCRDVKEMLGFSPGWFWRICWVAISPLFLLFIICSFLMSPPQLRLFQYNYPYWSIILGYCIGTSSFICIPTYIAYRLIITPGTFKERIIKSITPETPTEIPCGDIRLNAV

CWR22R = test: 22Rv1 cell line Proliferation assay; format: functional, Homo sapiens; conditions: Compound concentration 10 uM; time 5 day
NU-DHL-1 = test: NuDHL1 cell line Proliferation assay; format: functional, Homo sapiens; conditions: Compound concentration 10 uM; time 3 day
Ramos = test: Ramos cell line Proliferation assay; format: functional, Homo sapiens; conditions: Compound concentration 10 uM; time 3 day
Rec1 = test: REC1 cell line Proliferation assay; format: functional, Homo sapiens; conditions: Compound concentration 10 uM; time 3 day
NCI-H522 = test: H522 cell line Proliferation assay; format: functional, Homo sapiens; conditions: Compound concentration 10 uM; time 3 day
[4] = biological target: Calcitonin-gene-related peptide receptor, CALCRL/RAMP1 (Homo sapiens) (UniProt O60894+Q16602); test: CGRP (h) CEREP ligand profiling; format: protein-complex assay; conditions: filed as agonist, Compound concentration 10.0 uM
OCI-AML-5 = test: OCI-AML5 cell line Proliferation assay; format: functional, Homo sapiens; conditions: Compound concentration 10 uM; time 3 day
DOHH-2 = test: DoHH2 cell line Proliferation assay; format: functional, Homo sapiens; conditions: Compound concentration 10 uM; time 3 day
NCI-H146 = test: H146 cell line Proliferation assay; format: functional, Homo sapiens; conditions: Compound concentration 10 uM; time 4 day
Pfeiffer = test: Pfeiffer cell line Proliferation assay; format: functional, Homo sapiens; conditions: Compound concentration 10 uM; time 3 day
NCI-H1836 = test: H1836 cell line Proliferation assay; format: functional, Homo sapiens; conditions: Compound concentration 10 uM; time 4 day
CAL-120 = test: CAL_120 cell line Proliferation assay; format: functional, Homo sapiens; conditions: Compound concentration 10 uM; time 5 day
DB = test: DB cell line Proliferation assay; format: functional, Homo sapiens; conditions: Compound concentration 10 uM; time 3 day
OCI-AML2 = test: OCI-AML2 cell line Proliferation assay; format: functional, Homo sapiens; conditions: Compound concentration 10 uM; time 3 day
NCI-H1048 = test: H1048 cell line Proliferation assay; format: functional, Homo sapiens; conditions: Compound concentration 10 uM; time 4 day
[5] = biological target: B2 bradykinin receptor (Homo sapiens) (UniProt P30411); test: B2 (h) CEREP ligand profiling; conditions: filed as agonist, Compound concentration 10.0 uM
B2 bradykinin receptor (Homo sapiens), sequence (P30411 whole entry): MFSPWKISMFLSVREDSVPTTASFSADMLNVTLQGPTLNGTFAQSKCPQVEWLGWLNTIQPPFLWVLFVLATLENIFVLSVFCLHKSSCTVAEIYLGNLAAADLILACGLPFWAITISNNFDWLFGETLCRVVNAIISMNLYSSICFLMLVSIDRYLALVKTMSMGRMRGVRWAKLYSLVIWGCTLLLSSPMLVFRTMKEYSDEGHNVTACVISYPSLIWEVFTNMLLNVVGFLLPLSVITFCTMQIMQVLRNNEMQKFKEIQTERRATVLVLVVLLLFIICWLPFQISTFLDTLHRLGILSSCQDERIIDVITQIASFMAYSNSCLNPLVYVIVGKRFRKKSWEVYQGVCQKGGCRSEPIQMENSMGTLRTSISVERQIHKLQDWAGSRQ

OPM-2 = test: OPM-2 cell line Proliferation assay; format: functional, Homo sapiens; conditions: Compound concentration 10 uM; time 3 day
RPMI-8226 = test: RPMI-8226 cell line Proliferation assay; format: functional, Homo sapiens; conditions: Compound concentration 10 uM; time 3 day
HCC2935 = test: HCC2935 cell line Proliferation assay; format: functional, Homo sapiens; conditions: Compound concentration 10 uM; time 3 day
NCI-H187 = test: H187 cell line Proliferation assay; format: functional, Homo sapiens; conditions: Compound concentration 10 uM; time 4 day
ULA = test: ULA cell line Proliferation assay; format: functional, Homo sapiens; conditions: Compound concentration 10 uM; time 3 day
[6] = biological target: Sodium-dependent dopamine transporter (Homo sapiens, UniProt Q01959); test: GPCRScan assay: inhibition of DAT; set-up: radioligand conc. used [nm] 3.6 – 16.0, parental cells stable HEK
Sodium-dependent dopamine transporter, sequence (Q01959 whole entry): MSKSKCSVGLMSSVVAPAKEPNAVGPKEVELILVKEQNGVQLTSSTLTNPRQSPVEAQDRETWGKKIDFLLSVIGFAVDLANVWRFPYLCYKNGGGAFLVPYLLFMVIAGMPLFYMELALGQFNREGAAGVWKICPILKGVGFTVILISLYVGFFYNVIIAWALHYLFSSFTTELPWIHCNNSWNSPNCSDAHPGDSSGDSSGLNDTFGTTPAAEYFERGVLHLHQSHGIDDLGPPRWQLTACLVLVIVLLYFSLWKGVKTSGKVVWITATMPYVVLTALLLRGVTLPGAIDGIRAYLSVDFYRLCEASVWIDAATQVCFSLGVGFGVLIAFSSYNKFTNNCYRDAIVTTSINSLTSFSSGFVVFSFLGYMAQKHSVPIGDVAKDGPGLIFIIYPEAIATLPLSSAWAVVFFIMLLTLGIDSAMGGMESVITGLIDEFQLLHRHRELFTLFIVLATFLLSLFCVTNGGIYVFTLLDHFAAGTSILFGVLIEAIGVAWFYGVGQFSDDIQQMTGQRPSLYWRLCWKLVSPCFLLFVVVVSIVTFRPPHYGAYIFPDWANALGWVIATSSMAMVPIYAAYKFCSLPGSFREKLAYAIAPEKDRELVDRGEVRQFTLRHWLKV

HCC1395 = test: HCC1395 cell line Proliferation assay; format: functional, Homo sapiens; conditions: Compound concentration 10 uM; time 5 day

## CNC(=O)Nc1ccc2c(c1)CC[C@@]21OC(=O)N(CC(=O)N(Cc2ccc(F)cc2)[C@@H](C)C(F)(F)F)C1=O [A-485]
Hs 695T
  Cell Proliferation EC50: 3571 nM
BJAB
  Cell Proliferation EC50: 281.3 nM
NCI-H23
  Cell Proliferation EC50: 1791 nM
MDA-MB-157
  Cell Proliferation EC50: 4592 nM
HCC1187
  Cell Proliferation EC50: >10000 nM
SK-MEL-2
  Cell Proliferation EC50: >10000 nM
[1]
  inhibition: 8%
SK-MEL-24
  Cell Proliferation EC50: >10000 nM
[2]
  inhibition: 72%
NCI-H209
  Cell Proliferation EC50: 400 nM
NCI-H2444
  Cell Proliferation EC50: 5918 nM
SET-2
  Cell Proliferation EC50: 2010 nM
SUD4
  Cell Proliferation EC50: 720.4 nM
NCI-H510A
  Cell Proliferation EC50: >10000 nM
Toledo
  Cell Proliferation EC50: 487.5 nM
K562
  Cell Proliferation EC50: 1270 nM
MeWo
  Cell Proliferation EC50: 2427 nM
[3]; read-out: Ki
  Ki: 223 nM
[3]; read-out: pKi (converted)
  Ki: 219 nM
CWR22R
  Cell Proliferation EC50: 320 nM
NU-DHL-1
  Cell Proliferation EC50: 530.1 nM
Ramos
  Cell Proliferation EC50: 934 nM
Rec1
  Cell Proliferation EC50: >10000 nM
NCI-H522
  Cell Proliferation EC50: 3517 nM
[4]
  inhibition: 0%
OCI-AML-5
  Cell Proliferation EC50: 4860 nM
DOHH-2
  Cell Proliferation EC50: 751.2 nM
NCI-H146
  Cell Proliferation EC50: 400 nM
Pfeiffer
  Cell Proliferation EC50: 858.6 nM
NCI-H1836
  Cell Proliferation EC50: >10000 nM
CAL-120
  Cell Proliferation EC50: >10000 nM
DB
  Cell Proliferation EC50: 772.7 nM
OCI-AML2
  Cell Proliferation EC50: 2030 nM
NCI-H1048
  Cell Proliferation EC50: >10000 nM
[5]
  inhibition: 0%
OPM-2
  Cell Proliferation EC50: 620 nM
RPMI-8226
  Cell Proliferation EC50: 164 nM
HCC2935
  Cell Proliferation EC50: >10000 nM
NCI-H187
  Cell Proliferation EC50: >10000 nM
ULA
  Cell Proliferation EC50: 550.6 nM
[6]; read-out: Ki
  Ki: 1820 nM
[6]; read-out: pKi (converted)
  Ki: 1780 nM
HCC1395
  Cell Proliferation EC50: >10000 nM
